According to patent publication US12581252B2, “Substituted pyrrolo[3,4-b]pyridines as PI3K-α inhibitors” (Relay Therapeutics, Inc., priority 2020, dated 2026):

target: H1047R PIK3CA enzyme (Homo sapiens, UniProt P42336, H1047R); assay: ADP-Glo Biochemical PIK3CA Kinase Assay
Sequence (P42336 whole entry H1047R): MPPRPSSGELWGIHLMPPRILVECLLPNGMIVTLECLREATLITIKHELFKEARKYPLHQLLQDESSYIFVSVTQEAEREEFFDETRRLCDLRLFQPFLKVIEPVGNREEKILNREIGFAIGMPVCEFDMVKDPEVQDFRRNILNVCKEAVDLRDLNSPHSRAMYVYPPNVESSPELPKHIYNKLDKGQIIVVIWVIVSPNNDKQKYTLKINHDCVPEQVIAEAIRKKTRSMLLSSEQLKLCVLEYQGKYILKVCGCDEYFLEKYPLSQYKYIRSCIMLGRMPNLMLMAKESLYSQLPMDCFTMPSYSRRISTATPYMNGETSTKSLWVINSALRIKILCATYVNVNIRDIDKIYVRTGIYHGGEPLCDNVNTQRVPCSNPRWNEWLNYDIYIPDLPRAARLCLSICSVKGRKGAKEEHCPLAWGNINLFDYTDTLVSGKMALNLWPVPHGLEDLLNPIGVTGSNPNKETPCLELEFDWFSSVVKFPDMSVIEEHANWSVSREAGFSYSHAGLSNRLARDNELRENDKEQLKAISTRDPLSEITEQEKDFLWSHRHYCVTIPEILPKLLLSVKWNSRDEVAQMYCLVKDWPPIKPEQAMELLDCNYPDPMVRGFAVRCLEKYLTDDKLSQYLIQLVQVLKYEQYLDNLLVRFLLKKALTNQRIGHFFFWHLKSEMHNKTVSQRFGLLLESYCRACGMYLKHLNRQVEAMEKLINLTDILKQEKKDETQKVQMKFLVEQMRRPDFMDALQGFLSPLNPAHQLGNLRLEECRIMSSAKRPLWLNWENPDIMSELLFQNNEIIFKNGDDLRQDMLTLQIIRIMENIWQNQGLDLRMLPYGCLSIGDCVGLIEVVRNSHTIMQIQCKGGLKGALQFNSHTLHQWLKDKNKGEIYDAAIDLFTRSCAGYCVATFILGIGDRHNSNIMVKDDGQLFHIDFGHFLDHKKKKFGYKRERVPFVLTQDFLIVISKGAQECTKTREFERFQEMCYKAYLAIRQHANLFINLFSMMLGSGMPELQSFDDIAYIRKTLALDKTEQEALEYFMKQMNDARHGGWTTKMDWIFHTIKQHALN
Sequence (P27986 whole entry partner): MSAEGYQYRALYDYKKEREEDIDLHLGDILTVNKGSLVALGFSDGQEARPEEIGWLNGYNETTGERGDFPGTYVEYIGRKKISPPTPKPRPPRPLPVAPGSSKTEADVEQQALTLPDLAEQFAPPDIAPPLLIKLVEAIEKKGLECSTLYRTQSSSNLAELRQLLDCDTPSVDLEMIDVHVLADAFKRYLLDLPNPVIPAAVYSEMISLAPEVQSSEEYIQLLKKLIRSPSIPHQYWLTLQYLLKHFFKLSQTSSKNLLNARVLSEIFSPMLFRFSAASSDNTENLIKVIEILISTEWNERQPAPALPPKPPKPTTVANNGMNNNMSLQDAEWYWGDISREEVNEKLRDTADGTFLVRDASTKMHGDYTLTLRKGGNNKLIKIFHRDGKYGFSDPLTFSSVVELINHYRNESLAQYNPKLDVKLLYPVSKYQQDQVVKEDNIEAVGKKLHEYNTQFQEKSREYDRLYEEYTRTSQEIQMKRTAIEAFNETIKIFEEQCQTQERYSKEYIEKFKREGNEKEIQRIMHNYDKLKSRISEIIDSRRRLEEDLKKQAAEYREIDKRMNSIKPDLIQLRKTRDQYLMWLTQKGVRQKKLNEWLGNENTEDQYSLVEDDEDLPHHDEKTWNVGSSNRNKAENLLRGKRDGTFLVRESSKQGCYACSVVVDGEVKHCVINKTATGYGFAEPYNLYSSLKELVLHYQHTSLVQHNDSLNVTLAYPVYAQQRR

SMILES	IC50 [nM]
CC(O)c1cc(-c2ccc3ncnn3c2)cc2c1C(c1cc(F)ccc1Cl)NC2=O (stereo not drawn) [Compound I-1907]	10000 to 100000
Nc1csnc1C(=O)Nc1cc(Br)cc2c1C(c1cc(F)ccc1Cl)NC2=O (stereo not drawn) [Compound I-1425]	10000 to 100000
CC(=O)N[C@H]1CC[C@@H](C(=O)Nc2cc(-c3ccc4ncnn4c3)cc3c2C(c2cc(F)ccc2Cl)NC3=O)CC1 (mixture of isomers) [Compound I-1849]	10000 to 100000
O=C(NCC(F)F)Nc1cc(NC(=O)c2cc(F)cc(C(F)(F)F)c2)c2c(c1)C(=O)NC2c1cc(F)ccc1Cl (stereo not drawn) [Compound I-510]	≤ 100
O=C(Nc1cc(-c2ccc3nc(C(F)F)nn3c2)cc2c1C(c1cc(F)ccc1Cl)NC2=O)c1cc(F)cc(C(F)(F)F)c1 (stereo not drawn) [Compound I-1938]	≤ 100
O=C(Nc1cc(-c2ccc3ncnn3c2)nc2c1[C@@H](c1cc(F)ccc1Cl)NC2=O)c1cc(F)cc(C(F)(F)F)c1 [Compound I-1230]	100 to 500
O=C(Nc1cc(Br)cc2c1[C@@H](c1cc(Cl)ccc1Cl)NC2=O)c1cc(F)cc(C(F)(F)F)c1 [Compound I-764]	1000 to 10000
O=C(Nc1cc(N2CCCc3ncccc32)cc2c1C(c1cc(F)ccc1Cl)NC2=O)c1cc(F)cc(C(F)(F)F)c1 (stereo not drawn) [Compound I-1227]	≤ 100
O=C(Nc1cc(-c2cn[nH]c2)cc2c1[C@@H](c1cc(F)ccc1Cl)NC2=O)c1cc(F)cc(C(F)(F)F)c1 [Compound I-1079]	≤ 100
O=C(Nc1cc(-c2cc3ncnn3cc2F)cc2c1C(c1cc(F)ccc1Cl)NC2=O)c1cc(F)cc(C(F)(F)F)c1 (stereo not drawn) [Compound I-1828]	≤ 100
N#Cc1cnc2ccc(-c3cc(NC(=O)c4cc(F)cc(C(F)(F)F)c4)c4c(c3)C(=O)NC4c3cc(F)ccc3Cl)cc2c1 (stereo not drawn) [Compound I-1603]	≤ 100
CN1CCN(C(=O)Nc2cc(Br)cc3c2[C@@H](c2cc(F)ccc2Cl)NC3=O)CC1 (single isomer, unassigned) [Compound I-2245]	10000 to 100000
O=C(Nc1cc(OC2CN(C(=O)C(F)(F)F)C2)cc2c1C(c1cc(F)ccc1Cl)NC2=O)c1cc(F)cc(C(F)(F)F)c1 (racemic) [Compound I-1320]	100 to 500
O=C1N[C@@H](c2cc(F)ccc2Cl)c2c(NC(=O)[C@H]3C[C@H]3C(F)(F)F)cc(Br)cc21 (racemic) [Compound I-1853]	10000 to 100000
Cn1cc(-c2cc(NC(=O)c3cc(F)cc(C(F)(F)F)c3)c3c(c2)C(=O)NC3c2cc(F)ccc2Cl)cnc1=O (stereo not drawn) [Compound I-1404]	≤ 100
Cc1ccccc1[C@H]1NC(=O)c2cccc(NC(=O)c3coc4c(F)cc(F)cc34)c21 [Compound I-97]	10000 to 100000
O=C(Nc1cc(CNC2CC(F)(F)C2)cc2c1C(c1cc(F)ccc1Cl)NC2=O)c1cc(F)cc(C(F)(F)F)c1 (stereo not drawn) [Compound I-349]	≤ 100
N#CCc1cc(NC(=O)N2C[C@@](O)(C(F)(F)F)c3ccccc32)c2c(c1)C(=O)N[C@H]2c1cc(F)ccc1Cl (single isomer, unassigned) [Compound I-2602]	1000 to 10000
CNc1cc(NC(=O)N2C[C@](O)(C(F)(F)F)c3cc(F)ccc32)c2c(c1C#N)C(=O)N[C@H]2c1cc(F)ccc1Cl (single isomer, unassigned) [Compound I-2608]	1000 to 10000
O=C(Nc1cccc2c1C(c1cc(F)ccc1Cl)NC2=O)c1cc(O)cc(C(F)(F)F)c1 (stereo not drawn) [Compound I-448]	500 to 1000

SMILES	IC50 [nM]
O=C(Nc1cc(-c2ccc(=O)n(C(F)F)c2)cc2c1[C@@H](c1cc(F)ccc1Cl)NC2=O)c1cc(F)cc(C(F)(F)F)c1 [Compound I-1860]	1000 to 10000
O=C1NC(c2cc(F)ccc2Cl)c2c(NC(=O)C3(c4cccc(F)c4)CCCC3)cc(Br)cc21 (stereo not drawn) [Compound I-1638]	10000 to 100000
C[C@@H](c1cc(NC(=O)c2cc(F)cc(C(F)(F)F)c2)c2c(c1)C(=O)N[C@H]2c1cc(F)ccc1Cl)S(C)(=O)=O (single isomer, unassigned) [Compound I-1641]	≤ 100
O=C1N[C@@H](c2cc(F)ccc2Cl)c2c(NC(=O)N3C[C@@](O)(C(F)(F)F)c4cc(F)ccc43)cc(N3CCOC3=O)cc21 (single isomer, unassigned) [Compound I-2675]	1000 to 10000
O=C(Nc1cc(/N=C2/N[C@H](C(F)(F)F)CO2)cc2c1[C@@H](c1cc(F)ccc1Cl)NC2=O)c1cc(F)cc(C(F)(F)F)c1 (single isomer, unassigned) [Compound I-2389]	1000 to 10000
CC(=O)N1CCC[C@@H](Oc2cc(NC(=O)c3cc(F)cc(C(F)(F)F)c3)c3c(c2)C(=O)NC3c2cc(F)ccc2Cl)C1 (single isomer, unassigned) [Compound I-1431]	≤ 100
N#CCc1cc(NC(=O)N2C[C@](O)(C(F)(F)F)c3ccccc32)c2c(c1)C(=O)N[C@H]2c1cc(F)ccc1Cl (single isomer, unassigned) [Compound I-2604]	500 to 1000
O=C(Nc1cc(-c2ccn[nH]2)cc2c1C(c1cc(F)ccc1Cl)NC2=O)c1cc(F)cc(C(F)(F)F)c1 (stereo not drawn) [Compound I-815]	≤ 100
O=C(Nc1cc(C2CCOC2)cc2c1C(c1cc(F)ccc1Cl)NC2=O)c1cc(F)cc(C(F)(F)F)c1 (racemic) [Compound I-778]	≤ 100
COCCNc1cc(NC(=O)c2cc(F)cc(C(F)(F)F)c2)c2c(n1)C(=O)NC2c1cc(F)ccc1Cl (stereo not drawn) [Compound I-288]	100 to 500
O=C(Nc1cc(N2CC(F)(F)C2)nc2c1C(c1cc(F)ccc1Cl)NC2=O)c1cc(F)cc(C(F)(F)F)c1 (stereo not drawn) [Compound I-286, N-[5-(2-Chloro-5-fluorophenyl)-2-(3,3-difluoroazetidin-1-yl)-7-oxo-5H,6H,7H-pyrrolo[3,4-b]pyridin-4-yl]-3-fluoro-5-(trifluoromethyl)benzamide]	≤ 100
CNC(=O)c1cc(NC(=O)c2cc(F)cc(C(F)(F)F)c2)c2c(c1)C(=O)N[C@@H]2c1ccccc1C [Compound I-211]	10000 to 100000
O=C(Nc1cc(-c2ccc3ncnn3c2)cc2c1[C@@H](c1cc(F)ccc1Cl)NC2=O)c1cc(Cl)cc(Cl)c1 (stereo in doubt) [Compound I-1207]	1000 to 10000
O=C1N[C@H](c2cc(F)ccc2Cl)c2c(NC(=O)N3C[C@H](O)c4cc(F)ccc43)cc(Cl)cc21 (single isomer, unassigned) [Compound I-2399]	1000 to 10000
CC(C)(O)c1cc(NC(=O)c2cc(F)cc3cc[nH]c23)c2c(c1)C(=O)NC2c1cc(F)ccc1Cl (stereo not drawn) [Compound I-495]	≤ 100
Cn1nc(C(F)(F)F)cc1-c1cc(NC(=O)c2cc(F)cc(C(F)(F)F)c2)c2c(c1)C(=O)NC2c1cc(F)ccc1Cl (stereo not drawn) [Compound I-1865]	≤ 100
C[C@]1(C(=O)Nc2cc(Br)cc3c2[C@H](c2cc(F)ccc2Cl)NC3=O)CCC[C@@H](C(F)(F)F)C1 (single isomer, unassigned) [Compound I-2263]	1000 to 10000
O=C(Nc1cc(Br)cc2c1C(c1cc(F)ccc1Cl)NC2=O)NC12CC3CC(C1)CC(C(F)(F)F)(C3)C2 (stereo not drawn) [Compound I-1256]	100 to 500
O=C1NC(c2ccccc2OC(F)(F)F)c2c(NC(=O)c3csc4ccccc34)ccnc21 (stereo not drawn) [Compound I-70]	1000 to 10000
O=C(Nc1cc(-c2ccc3ncnn3c2)cc2c1[C@H](c1cc(F)c(F)cc1Cl)NC2=O)c1cc(F)cc(C(F)(F)F)c1 [Compound I-1059]	1000 to 10000

SMILES	IC50 [nM]
Cc1ccccc1C1NC(=O)c2cccc(NC(=O)c3cccc(F)c3)c21 (stereo not drawn) [Compound I-475]	1000 to 10000
O=C(Nc1cccc2c1C(c1cc(F)ccc1Cl)NC2=O)c1cc(F)cnc1NC1CCC1 (stereo not drawn) [Compound I-768]	1000 to 10000
O=C(Nc1cccc2c1[C@@H](c1cc(F)ccc1Cl)NC2=O)c1cc(F)cc(C(F)(F)F)c1 [Compound I-860]	1000 to 10000
O=C(CC1CC(F)(F)C1(F)F)Nc1cc(Br)cc2c1C(c1cc(F)ccc1Cl)NC2=O (stereo not drawn) [Compound I-1633]	1000 to 10000
O=C(Nc1cc(N[C@H]2C[C@H](F)C2)cc2c1C(c1cc(F)ccc1Cl)NC2=O)c1cc(F)cc(C(F)(F)F)c1 (single isomer, unassigned) [Compound I-540]	≤ 100
[2H]C1([2H])N(C(=O)Nc2cccc3c2[C@@H](c2cc(F)ccc2Cl)NC3=O)c2ccc(F)cc2[C@]1(O)C(F)(F)F (single isomer, unassigned) [Compound I-2592]	1000 to 10000
N#CCC(O)c1cc(NC(=O)c2cc(F)cc(C(F)(F)F)c2)c2c(c1)C(=O)NC2c1cc(F)ccc1Cl (racemic) [Compound I-1243]	≤ 100
O=C(Nc1cc(-n2cccn2)cc2c1[C@@H](c1cc(F)ccc1Cl)NC2=O)c1cc(F)cc(C(F)(F)F)c1 [Compound I-1070]	1000 to 10000
Cc1ccccc1C1NC(=O)c2cccc(NC(=O)c3cnn4ccc(Cl)cc34)c21 (stereo not drawn) [Compound I-48]	1000 to 10000
O=C1N[C@H](c2cc(F)ccc2Cl)c2c(NC(=O)N3C[C@@](O)(C(F)(F)F)c4cc(F)ccc43)cc(F)cc21 (single isomer, unassigned) [Compound I-2629]	1000 to 10000
O=C1NC(c2cc(F)ccc2Cl)c2c(NC(=O)C3CCCC(F)C3)cc(-c3ccc4ncnn4c3)cc21 (stereo not drawn) [Compound I-1957]	1000 to 10000
O=C(Nc1cccc2c1[C@H]([C@@H]1CCCCC1=O)NC2=O)c1cc(F)cc(C(F)(F)F)c1 (racemic) [Compound I-2036]	10000 to 100000
O=C(CC1CC1)Nc1cc(-c2ccc3ncnn3c2)cc2c1C(c1cc(F)ccc1Cl)NC2=O (stereo not drawn) [Compound I-1781]	10000 to 100000
O=C(Nc1cc(N2CCOCC2)nc2c1C(c1cc(F)ccc1Cl)NC2=O)c1cc(F)cc(C(F)(F)F)c1 (stereo not drawn) [Compound I-358]	≤ 100
Cc1ccccc1C1NC(=O)c2cccc(NC(=O)c3cc(Cl)n4ccccc34)c21 (stereo not drawn) [Compound I-69]	100 to 500
N#CC1CC(Oc2cc(NC(=O)c3cc(F)cc(C(F)(F)F)c3)c3c(c2)C(=O)NC3c2cc(F)ccc2Cl)C1 (stereo not drawn) [Compound I-1129]	≤ 100
CCN(C(=O)Nc1cccc2c1C(c1cc(F)ccc1Cl)NC2=O)c1ccc(F)cc1 (stereo not drawn) [Compound I-2434]	10000 to 100000
O=C1NC(c2cc(F)ccc2Cl)c2c(Nc3coc4ccccc34)cc(Br)cc21 (stereo not drawn) [Compound I-1691]	1000 to 10000
O=C1NC(c2cc(F)ccc2Cl)c2c(NC(=O)N3CCC(C(F)(F)F)CC3)cc(Br)cc21 (stereo not drawn) [Compound I-430]	1000 to 10000
O=C1N[C@H](c2cc(F)ccc2Cl)c2c(NC(=O)N3C[C@H](O)c4c(F)cccc43)cccc21 (single isomer, unassigned) [Compound I-2143]	500 to 1000
